# Measurements: patent US5491135A (priority 1993, dated 1996)
# “And” between values parts separate entries of the source, which are not always exact repeats. Equal values may be shown once.
# Columns and labels:
# [1] = system: duck hepatitis B virus (DHBV); test: Duck hepatitis B (DHBV) in primary duck hepatocyte culture; format: cell-based
# Method: Using the duck hepatitis model (DHBV), primary duck hepatocyte cells were treated with various concentrations of PALA (disodium salt) and evaluated for cytopathic effect. In addition, viral DNA replication was assessed using "slot" dot blots. […] These experiments were performed three times with confirmatory results.
# [2] = system: simian varicella virus; test: Simian varicella virus infection in African green monkeys; format: in vivo, African green monkey
# Method: Fifteen African green monkeys were weighed and bled for clinical chemistry hematology baselines. […] Each of the 15 monkeys were infected with simian varicella virus by intratracheal inoculation of 3.7×10^4 plaque forming units (PFU) of simian varicella virus. […] Control monkeys, service as infection controls, received twice daily intravenous injections of phosphate buffered saline administered at 1.0 ml/kg of body weight. A second group of three monkeys received PALA at 50 mg/kg/day given by intravenous bolus injection into the saphenous vein. A third group was given a lower dose of PALA at 20 mg/kg/day administered in a similar manner. Acyclovir treatment was administered at a subeffective dose of 10 mg/kg/day also given as intravenous bolus injection into the saphenous vein. A fifth group of three monkeys received a combined treatment of PALA at 20 mg/kg/day and acyclovir at 10 mg/kg/day. The drugs were injected into opposite veins at each time of treatment.
# Drug solutions were prepared daily prior to treatment. Treatment was begun 24 hours after virus inoculation. PALA was provided as a solution in vials containing 5 ml at 100 mg/ml. The contents of three vials were pooled and seven ml of the pooled drug diluted to 28 ml to give 25 mg/ml. Five ml of this solution was diluted to […] to give 10 mg/ml. Drug was administered twice daily resulting in total daily doses of 50 or 20 mg/kg/day.
# Acyclovir received as a gift from Burroughs Wellcome was weighed out as a 200 mg quantity. This was diluted with 5 ml of PBS and pH adjusted to 11.0 with 1N NaOH to effect solution. This was subsequently diluted to 40 ml to give a solution of 5 mg/ml and sterilized by filtration. Again, 1 ml per kg of body weight was administered by intravenous injection twice daily resulting in a dose of 10 mg/kg/day.
# The clinical course of simian varicella infection was followed by collection of 2 ml of blood in heparin on day 2, 5, 7, 9 and 11 post-inoculation. The lymphocytes in the 2 ml specimen were separated on ficol-hypaque gradients, washed twice in RPMI-1640 medium and suspended in 10 ml of this medium. The 10 ml volume was divided between two 25 cm^2 tissue culture flasks seeded 24 hours earlier with Vero cells. After 5-7 days incubation, the culture fluids were discarded from the flasks and the cell monolayer fixed with methanol and stained with methylene blue-basic fuchsin. When dried the number of plaques in each flask were counted and the mean number of plaques between the two paired flasks were determined and expressed as a quantitation of viremia per ml of blood.
# Rash was evaluated daily using a subjective scoring of severity from ± to 4+. A ± score indicates less than 10 vesicles seen on the skin of the monkey while 4+ indicates numerous vesicles covering the majority of the body surface. General clinical condition was assessed daily and anorexia noted by counting the number of food biscuits consumed daily. Monkeys dying during the course of the experiment were necropsied and simian varicella was determined as the cause of death based on the typical pathology. Baseline hematology and clinical chemistry tests were performed at three days before virus inoculation and again on day 0, immediately before virus inoculation. Following inoculation of simian varicella virus blood was taken for hematology and clinical chemistry tests at 3, 7, 9 and 11 days.
# At 14 and 21 days after virus inoculation, blood was taken and the serum separated for quantitation of antibody. Antibody titers were obtained in a serum neutralization test employing a plaque reduction assay. The antibody titer expressed is the dilution of serum resulting in an 80 percent reduction in the number of plaques from that number occurring in control cultures without added serum.
# [3] = system: Punta toro virus; test: microbe, parasite or virus in culture; conditions: Vero
# [4] = system: Sandfly fever virus; test: microbe, parasite or virus in culture; conditions: sandfly fever Sicilian virus, Vero
# [5] = system: Yellow fever virus; test: microbe, parasite or virus in culture; conditions: Vero
compound,measurement,setting,value
O=C(O)C[C@H](NC(=O)CP(=O)(O)O)C(=O)O [PALA],inhibition at 0.5 µM,"[1]; Duck hepatitis B virus, Hepatocyte",95%
same,toxicity,[1]; high concentrations,little or no toxicity
same,death,[2]; PALA 20 mg/kg/day i.v.,died later that same day
same,death,[2]; PALA 50 mg/kg/day i.v.,died on day 10
same,thrombocytopenia on day 11,[2]; PALA 50 or Acyclovir 10 mg/kg/day,one monkey
same,"Viremia, Mean PFU","[2]; day 5, PALA 50 mg/kg/d i.v.",136 PFU and 154 PFU and 148 PFU
same,Severity of Rash,"[2]; day 13, PALA 50 mg/kg/d i.v.",4+
same,Severity of Rash,"[2]; day 14, PALA 50 mg/kg/d i.v.",4+
same,immunosuppression,[2]; high concentrations,Some concentration dependent immunosuppression was noted at high concentrations
same,IC50,[3],15.2 µg/mL
same,IC50,[4],20.9 µg/mL
same,IC50,[5],16.6 µg/mL
